Laboratory results published in ChEMBL document CHEMBL1154007, “Discovery and development of aurora kinase inhibitors as anticancer agents” (J Med Chem, 2009).
Structures can show the parent of a compound that is named as a salt. Each block holds one molecule with its values, some of them ahead of it.

What was measured:
[1] = biological target: Proto-oncogene tyrosine-protein kinase Src (Homo sapiens, UniProt P12931); experiment: Inhibition of Src
[2] = biological target: Glycogen synthase kinase-3 beta (Homo sapiens, UniProt P49841); experiment: Inhibition of Gsk3beta
Chain of Glycogen synthase kinase-3 beta (P49841 whole entry): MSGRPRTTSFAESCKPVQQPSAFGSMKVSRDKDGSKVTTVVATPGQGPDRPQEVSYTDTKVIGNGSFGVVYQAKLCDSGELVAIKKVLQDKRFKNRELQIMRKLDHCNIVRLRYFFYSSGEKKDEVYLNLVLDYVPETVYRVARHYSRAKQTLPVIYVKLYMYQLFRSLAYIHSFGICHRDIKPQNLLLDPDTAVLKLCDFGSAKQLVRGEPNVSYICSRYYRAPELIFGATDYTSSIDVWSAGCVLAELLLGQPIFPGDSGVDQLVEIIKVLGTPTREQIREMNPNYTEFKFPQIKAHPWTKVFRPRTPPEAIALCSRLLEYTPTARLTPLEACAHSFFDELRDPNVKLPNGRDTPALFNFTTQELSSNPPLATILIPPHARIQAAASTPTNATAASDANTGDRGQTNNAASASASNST

Aurora kinase A = biological target: T1, Aurora kinase A (Homo sapiens, UniProt O14965)
T1 sequence (O14965 whole entry): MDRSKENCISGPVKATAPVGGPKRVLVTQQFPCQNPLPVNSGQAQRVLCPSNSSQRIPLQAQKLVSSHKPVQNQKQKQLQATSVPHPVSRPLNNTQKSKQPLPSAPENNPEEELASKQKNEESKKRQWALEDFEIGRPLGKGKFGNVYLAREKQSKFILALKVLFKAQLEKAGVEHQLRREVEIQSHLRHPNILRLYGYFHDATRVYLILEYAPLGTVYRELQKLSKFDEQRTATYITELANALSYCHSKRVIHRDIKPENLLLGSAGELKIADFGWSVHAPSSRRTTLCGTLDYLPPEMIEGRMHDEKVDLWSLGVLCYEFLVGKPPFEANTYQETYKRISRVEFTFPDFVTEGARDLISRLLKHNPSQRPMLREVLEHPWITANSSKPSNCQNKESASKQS

COLO 205 = experiment: Antiproliferative activity against human COLO205 cells assessed as inhibition of thymidine uptake after 96 hrs; format: functional, cell-based; details: COLO 205, 96 h
[3] = Aqueous solubility at pH 7.4; format: physicochemical
Aurora kinase B [4] = biological target: T2, Aurora kinase B (Homo sapiens, UniProt Q96GD4); experiment: Inhibition of aurora B kinase
T2 sequence (Q96GD4 whole entry): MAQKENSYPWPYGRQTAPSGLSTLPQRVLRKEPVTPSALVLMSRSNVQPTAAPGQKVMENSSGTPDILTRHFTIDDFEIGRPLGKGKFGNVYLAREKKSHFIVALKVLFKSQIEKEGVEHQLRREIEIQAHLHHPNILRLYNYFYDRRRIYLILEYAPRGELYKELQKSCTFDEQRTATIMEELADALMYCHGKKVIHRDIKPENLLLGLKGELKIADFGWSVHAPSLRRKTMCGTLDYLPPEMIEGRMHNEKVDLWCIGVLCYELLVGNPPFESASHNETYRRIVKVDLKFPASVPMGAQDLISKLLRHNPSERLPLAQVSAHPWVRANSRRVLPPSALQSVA

[5] = Bioavailability in […] rat; format: ADME, organism-based; details: in vivo
[6] = Toxicity in po dosed rat assessed at maximum tolerated dose after 2 weeks; format: organism-based; details: in vivo
[7] = Clearance in iv dosed rat; format: ADME, organism-based; details: in vivo
[8] = Half life in iv dosed rat; format: ADME, organism-based; details: in vivo
Rattus norvegicus = species on record: Rattus norvegicus; experiment: Antitumor activity in rat assessed as inhibition of tumor volume; format: functional
[9] = Volume of distribution at steady state in iv dosed rat; format: ADME, organism-based; details: in vivo, read-out: Vdss
HCT-116 = experiment: Antiproliferative activity against human HCT116 cells assessed as BrdU incorporation after 72 hrs; format: functional, cell-based; details: HCT-116, 72 h
Aurora kinase B [10] = biological target: T2, Aurora kinase B; experiment: Inhibition of aurora B in human SW620 cells assessed as inhibition of histone H3 phosphorylation; format: cell-based, SW-620
[11] = Drug level in tumor bearing mouse plasma at 30 mg/kg after 24 hrs; format: ADME, organism-based; set-up: dose 30 mg/kg; details: read-out: Activity
[12] = Drug level in tumor bearing mouse tumor at 30 mg/kg after 24 hrs; format: ADME, organism-based, Neoplasm; set-up: dose 30 mg/kg; details: read-out: Activity
[13] = biological target: Tyrosine-protein kinase Lck (Homo sapiens, UniProt P06239); experiment: Inhibition of Lck
Chain of Tyrosine-protein kinase Lck (P06239 whole entry, the tested form may be a part): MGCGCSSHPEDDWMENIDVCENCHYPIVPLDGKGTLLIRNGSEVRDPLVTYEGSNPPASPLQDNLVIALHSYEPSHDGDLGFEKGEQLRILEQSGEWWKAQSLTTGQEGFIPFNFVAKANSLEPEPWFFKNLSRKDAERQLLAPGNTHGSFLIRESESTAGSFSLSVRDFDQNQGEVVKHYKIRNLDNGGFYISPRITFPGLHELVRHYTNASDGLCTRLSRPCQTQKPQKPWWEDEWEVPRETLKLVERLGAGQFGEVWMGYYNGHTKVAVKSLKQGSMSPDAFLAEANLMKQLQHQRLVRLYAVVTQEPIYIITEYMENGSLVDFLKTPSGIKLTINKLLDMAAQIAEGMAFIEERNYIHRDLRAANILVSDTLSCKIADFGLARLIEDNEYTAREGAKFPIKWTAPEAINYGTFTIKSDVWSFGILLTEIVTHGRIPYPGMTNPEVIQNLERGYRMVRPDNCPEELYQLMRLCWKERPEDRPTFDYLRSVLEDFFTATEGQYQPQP

Homo sapiens = experiment: Drug elimination in human patient after 5 days of iv infusion; format: ADME, organism-based; details: in vivo, 120 h
Aurora kinase C = biological target: T3, Aurora kinase C (Homo sapiens, UniProt Q9UQB9); experiment: Inhibition of aurora C kinase
T3 sequence (Q9UQB9 whole entry): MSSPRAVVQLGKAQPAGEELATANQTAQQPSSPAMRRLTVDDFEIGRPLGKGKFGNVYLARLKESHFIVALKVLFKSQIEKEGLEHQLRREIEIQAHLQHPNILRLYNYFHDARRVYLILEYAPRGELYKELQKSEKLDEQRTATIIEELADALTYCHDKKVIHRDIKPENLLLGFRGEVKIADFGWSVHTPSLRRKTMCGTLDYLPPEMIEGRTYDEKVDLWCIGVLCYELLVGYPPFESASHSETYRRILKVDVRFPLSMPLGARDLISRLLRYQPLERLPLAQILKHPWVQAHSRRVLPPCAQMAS

[14] = Clearance in iv infused tumor bearing mouse; format: ADME, organism-based; details: in vivo
A2780 = experiment: Antiproliferative activity against human A2780 cells assessed as accumulation of 4N DNA; format: functional, cell-based
[15] = Elimination half life in iv infused tumor bearing mouse; format: ADME, organism-based; details: in vivo, read-out: beta t1/2 (converted)
[16] = Volume of distribution in iv infused tumor bearing mouse; format: ADME, organism-based; details: in vivo

Chain of Proto-oncogene tyrosine-protein kinase Src (P12931 2-536 limits assumed): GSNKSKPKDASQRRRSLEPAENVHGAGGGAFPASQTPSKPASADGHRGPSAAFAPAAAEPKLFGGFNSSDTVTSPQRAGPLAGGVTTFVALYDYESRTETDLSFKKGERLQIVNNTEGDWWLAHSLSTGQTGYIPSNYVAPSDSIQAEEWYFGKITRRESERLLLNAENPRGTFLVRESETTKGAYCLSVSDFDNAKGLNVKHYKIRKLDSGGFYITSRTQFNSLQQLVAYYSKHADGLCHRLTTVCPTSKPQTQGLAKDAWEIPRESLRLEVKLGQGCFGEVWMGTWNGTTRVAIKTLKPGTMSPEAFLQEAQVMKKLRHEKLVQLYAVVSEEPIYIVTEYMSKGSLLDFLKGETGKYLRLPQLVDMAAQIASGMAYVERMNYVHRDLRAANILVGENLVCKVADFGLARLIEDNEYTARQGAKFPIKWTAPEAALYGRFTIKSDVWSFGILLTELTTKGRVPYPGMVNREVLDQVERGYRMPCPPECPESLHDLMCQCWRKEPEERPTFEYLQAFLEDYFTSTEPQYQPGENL

IC50 (Aurora kinase A): < 1 nM
IC50 (Aurora kinase B [4]): < 1 nM
Compound: COc1cc2c(Nc3ncc(CC(=O)Nc4ccccc4)s3)ncnc2cc1OCCCN1CCOCC1

IC50 (Aurora kinase A): 800 nM
IC50 (Aurora kinase B [4]): 7.5 nM
Compound: CCN(CCO)CCCOc1ccc2c(Nc3cc(CC(=O)Nc4cccc(F)c4F)[nH]n3)ncnc2c1

IC50 (Aurora kinase A): 182 nM
IC50 (Aurora kinase B [4]): 530 nM
Compound: COc1cc2c(Nc3nc(C(=O)Nc4ccccc4)cs3)ncnc2cc1OCCCN1CCOCC1

clearance [7]: 14 mL/min/kg
half-life [8]: 5 h
Compound: CCN(CCCOc1ccc2c(Nc3cc(CC(=O)Nc4cccc(F)c4)n[nH]3)ncnc2c1)CCOP(=O)(O)O [BARASERTIB]

EC50 (HCT-116): 45 nM
Compound: O=C(Nc1ccccc1)Nc1ncc(CCNc2ncnc3ccsc23)s1

EC50 (HCT-116): 13 nM
Compound: O=C(Nc1cccc(C(F)(F)F)c1)Nc1ncc(CCNc2ncnc3ccsc23)s1

IC50 (Aurora kinase A): 360 nM
IC50 (Aurora kinase B [10]): 45 nM
IC50 (Aurora kinase B [4]): < 1 nM
Compound: CCN(CCO)CCCOc1cc2ncnc(Nc3cc(CC(=O)Nc4cccc(F)c4F)[nH]n3)c2cc1OC

IC50 (Aurora kinase A): 220 nM
IC50 (Aurora kinase B [10]): 290 nM
IC50 (Aurora kinase B [4]): 2 nM
Compound: CCCN(CCO)CCCOc1cc2ncnc(Nc3cc(CC(=O)Nc4cccc(F)c4)[nH]n3)c2cc1OC

IC50 (Aurora kinase A): 190 nM
IC50 (Aurora kinase B [10]): 270 nM
IC50 (Aurora kinase B [4]): 1 nM
Compound: CCN(CCO)CCCOc1cc2ncnc(Nc3cc(CC(=O)Nc4cccc(F)c4)[nH]n3)c2cc1OC

EC50 (HCT-116): 6 nM
Compound: O=C(Nc1cccc(Cl)c1)Nc1ncc(CCNc2ncnc3ccsc23)s1 [SNS-314 MESYLATE]

IC50 (Aurora kinase B [4]): 1 nM
Compound: COc1cc2c(Nc3cnc(NC(=O)c4ccccc4)nc3)ncnc2cc1OCCCN1CCOCC1

IC50 (Aurora kinase A): 4 nM
IC50 (Aurora kinase B [4]): 42 nM
Compound: COc1cc2c(Nc3ncc(C(=O)Nc4ccccc4)s3)ncnc2cc1OCCCN1CCOCC1

IC50 (Aurora kinase A): 11 nM
IC50 (Aurora kinase B [4]): 57 nM
Compound: COc1cc2c(Nc3ccc(C(=O)Nc4ccccc4)s3)ncnc2cc1OCCCN1CCOCC1

More lines, now with the values behind:

Compound: Cc1cc(Nc2nc(-c3ccccc3)nc3ccccc23)n[nH]1
Ki [1]: 81 nM
Ki [2]: 22 nM
Ki (Aurora kinase A): 58 nM
IC50 (COLO 205): 1400 nM

Compound: CCC(=O)Nc1ccc(Sc2nc(Nc3cc(C)n[nH]3)cc(N3CCN(C(C)(C)C)CC3)n2)cc1
solubility [3]: 221 µM
IC50 (Aurora kinase A): 1.3 nM
IC50 (COLO 205): 2 nM
IC50 (Aurora kinase B [4]): 11 nM

Compound: CCC(=O)Nc1ccc(Sc2nc(Nc3cc(C)n[nH]3)cc(N3CCN(CC)CC3)n2)cc1
solubility [3]: 114 µM
IC50 (Aurora kinase A): < 1 nM
IC50 (COLO 205): 24 nM
IC50 (Aurora kinase B [4]): 25 nM

Compound: CC(=O)Nc1ccc(Sc2nc(Nc3cc(C)n[nH]3)c3ccccc3n2)cc1
Ki [1]: 1260 nM
bioavailability [5]: 44%
MTD at 336 h [6]: 300 mg/kg
clearance [7]: 7 mL/min
half-life [8]: 1 h
Ki [2]: 1030 nM
Ki (Aurora kinase A): 4 nM
IC50 (COLO 205): 480 nM
inhibition (INH) (Rattus norvegicus): 50%
Ki (Aurora kinase B [4]): 27 nM
Vd [9]: 0.38 L/kg

Compound: CCC(=O)Nc1ccc(Sc2nc(Nc3cc(C)n[nH]3)cc(N3CCOCC3)n2)cc1
solubility [3]: 5.4 µM
IC50 (Aurora kinase A): 1.7 nM
IC50 (COLO 205): 135 nM
IC50 (Aurora kinase B [4]): 14 nM

Compound: CCC(=O)Nc1ccc(Sc2nc(Nc3cc(C)[nH]n3)cc(N3CCN(C)CC3)n2)cc1
solubility [3]: 63.4 µM
IC50 (Aurora kinase A): 1.6 nM
IC50 (COLO 205): 24 nM
IC50 (Aurora kinase B [4]): 20 nM

Compound: CC(C)(C)c1ccc(C(=O)Nc2n[nH]c3c2CN(C(=O)Cc2cccs2)C3)cc1
IC50 (HCT-116): 2000 nM

Compound: CCC(=O)Nc1ccc(Sc2nc(Nc3cc(C)n[nH]3)cc(N3CCN(C4CC4)CC3)n2)cc1
solubility [3]: 12.8 µM
IC50 (Aurora kinase A): < 1 nM
IC50 (COLO 205): 75 nM
IC50 (Aurora kinase B [4]): 9.5 nM

Compound: CCC(=O)Nc1ccc(Sc2nc(Nc3cc(C)n[nH]3)cc(N3CCCCC3)n2)cc1
solubility [3]: 2.5 µg/mL
IC50 (Aurora kinase A): 1.6 nM
IC50 (COLO 205): 400 nM
IC50 (Aurora kinase B [4]): 8 nM

Compound: O=C(Nc1c[nH]nc1-c1nc2cc(CN3CCOCC3)ccc2[nH]1)NC1CC1 [AT-9283]
IC50 (Aurora kinase B [4]): 3 nM

Compound: O=C(O)c1ccc(Nc2ncc3c(n2)-c2ccc(Cl)cc2C(c2c(F)cccc2F)=NC3)cc1 [MLN-8054]
concentration at 24 h [11]: > 1000 nM
concentration at 24 h [12]: > 2000 nM

Compound: COc1cc(Nc2ncc3c(n2)-c2ccc(Cl)cc2C(c2c(F)cccc2OC)=NC3)ccc1C(=O)O [ALISERTIB]
IC50 [13]: 320 nM

Compound: CN1CCN(c2ccc(C(=O)Nc3n[nH]c4c3CN(C(=O)Cc3cccs3)C4)cc2)CC1
IC50 (HCT-116): 570 nM

Compound: Cc1cc(Nc2cc(N3CCN(C)CC3)nc(Sc3ccc(NC(=O)C4CC4)cc3)n2)[nH]n1 [TOZASERTIB]
Activity (Homo sapiens): 75%

Compound: COc1cc2c(Nc3cc(CC(=O)Nc4cccc(F)c4F)[nH]n3)ncnc2cc1OCCCN(CCO)CC(C)C
IC50 (Aurora kinase A): 18 nM
IC50 (Aurora kinase B [10]): < 1 nM
IC50 (Aurora kinase B [4]): < 1 nM

Compound: Cc1nc(N)sc1-c1ccnc(Nc2ccc(N3CCOCC3)cc2)n1 [CYC-116]
IC50 (Aurora kinase C): 65 nM

Compound: CO[C@@H](C(=O)N1Cc2n[nH]c(NC(=O)c3ccc(N4CCN(C)CC4)cc3)c2C1)c1ccccc1 [DANUSERTIB]
clearance [14]: 28.3 mL/min/kg
IC50 (A2780): 28000 nM
half-life [15]: 3.7 h
Vd [16]: 2.7 L/kg

Compound: CCC(=O)Nc1ccc(Sc2nc(Nc3cc(C)n[nH]3)cc(N3CCNCC3)n2)cc1
solubility [3]: 296 µM
IC50 (Aurora kinase A): 3.7 nM
IC50 (COLO 205): 79 nM
IC50 (Aurora kinase B [4]): 18 nM
